Test results taken from patent publication US9629828B2, “Methods of treating traveler's diarrhea and hepatic encephalopathy” (priority 2008, dated 2017).
“And” between values parts separate entries of the source, which are not always exact repeats. Identical values can stand only once. “Also recorded” adds a separate entry of the source. Like-named read-outs stand apart in the source and are kept apart here.

Key:
[1] = system: subjects with a history of recurrent, overt, episodic HE; assay: Second study: changes in Conn scores and asterixis grades; assay type: in vivo, human
From the text: Normalizing for subject exposure, this represents a hospitalization rate of 0.60 event/PEY. A total of 59 were hospitalized due HE episodes (e.g., HE-caused). Normalizing for subject exposure, this represents an HE-caused hospitalization rate of 0.29 event/PEY. […] All subjects were capable of worsening over time, and 24/266 subjects (9.0%) did so by 1 or 2 grades.
The last visit for the second study is the last visit recorded for the interim analysis.
A total of 65.5% of subjects (220 of 337) had no change in Conn score and 21.1% (71 of 337) had improvements in Conn score from baseline to last visit. […] No change from baseline in asterixis grade was reported for 75.2% of subjects (252 of 337), and 17.3% had improvements.

rabbits [2] = conditions: rabbit, in vivo
[3] = system: subjects in remission from hepatic encephalopathy (HE); assay: First study: critical flicker frequency (CFF) test; assay type: in vivo, human; conditions: for Critical flicker frequency test: r9 Mean, r11 Median, r12 Min, r13 Max; for Mean (SD) change in CFF result: baseline to end of treatment
Experimental: The Critical Flicker Frequency (CFF) was assessed for each subject at screening, baseline, visits 3 through 14 and the end of study visit using the Lafayette Flicker Fusion (Lafayette Instrument Company, Inc). Circular light pulses with a 1:1 ratio between the visual impulse and the interval were used with decreasing frequency in gradual steps of 0.5 to 0.1 Hz/second. The frequency of the white light, which is initially generated as a high-frequency pulse (50 Hz) and which gives the patient the impression of a steady light, was reduced gradually until the patient had the impression that the steady light had changed to a flicker. The patient registered this change by pressing a hand-held switch. […] The process was conducted in a quiet, semi-darkened room without distracting noises and took about 10 minutes.
The critical flicker frequency (CFF) was assessed for each subject using a specialized CFF instrument. The CFF is the frequency at which the subject observes a constant light transition to a flickering light and is measured in Hertz (Hz). CFF is an objective assessment of mental status.
The CFF was measured on a continuous scale and was the mean of 8 separate fusion-to-flicker transition tests performed in rapid succession.
Mean values and mean changes from baseline in blood ammonia concentration and critical flicker frequency values were collected. Analyses of blood ammonia concentrations and critical flicker frequency values were based upon quantitative values (not qualitative grades). Treatment differences for mean change from baseline in these parameters was estimated using a mixed effects model with fixed effects for time and baseline value.

CYP3A4 = assay: Clinical drug interaction: rifaximin 550 mg TID on oral midazolam
Tg.rasH2 mice = conditions: Tg.rasH2, mouse, in vivo, 26 weeks
Campylobacter jejuni = assay: Travelers' diarrhea Study 2: fever/blood in stool, Campylobacter jejuni; set-up: species or system human; conditions: in vivo
Experimental: One study was conducted at clinical sites in Mexico, Guatemala, and Kenya (Study 1). The other study was conducted in Mexico, Guatemala, Peru, and India (Study 2). Stool specimens were collected before treatment and 1 to 3 days following the end of treatment to identify enteric pathogens. The predominant pathogen in both studies was Escherichia coli.
The results of Study 2 supported the results presented for Study 1. […] These subjects had lower clinical cure rates than those without fever or blood in the stool at baseline. Many of the patients with fever and/or blood in the stool (dysentery-like diarrheal syndromes) had invasive pathogens, primarily Campylobacter jejuni, isolated in the baseline stool.
In addition to not being different from placebo, the microbiologic eradication rates for subjects with Campylobacter jejuni isolated at baseline were much lower than the eradication rates seen for Escherichia coli.

rats [4] = conditions: rat, in vivo
From the text: (§1) These effects include cleft palate, agnatha, jaw shortening, hemorrhage, eye partially open, small eyes, brachygnathia, incomplete ossification, and increased thoracolumbar vertebrae.

rabbits [5] = conditions: rabbit, in vivo; remark: listed apart in the source
From the text: as §1

[6] = system: subjects in remission from hepatic encephalopathy (HE); assay: First study: HE-related, HE-caused and all-cause hospitalization; assay type: in vivo, human
[7] = Post approval adverse reactions; assay type: in vivo, human; conditions: post approval use
From the text: Because these reactions are reported voluntarily from a population of unknown size, estimates of frequency cannot be made.

in vivo = conditions: rat
Experimental: (§2) However, plasma drug levels were not measured in these studies. […] The maximum plasma AUC0-8 hr values from the 6 month rat and 9 month dog toxicity studies (range: 42-127 ng·h/mL) was lower than the maximum plasma AUC0-8 hr values in cirrhotic patients (range: 19-306 ng·h/mL).

rats [8] = assay: in vivo; conditions: rat
Experimental: as §2

[9] = system: subjects with a history of recurrent, overt, episodic HE; assay: Second study: changes in Conn scores and asterixis grades; assay type: in vivo, human; conditions: 266 subjects
[10] = system: Gram-positive and Gram-negative bacteria, such as Escherichia coli; assay: In vitro antibacterial activity / susceptibility (NCCLS agar dilution M7-A6); assay type: cell-based
Experimental: In vitro susceptibility testing was performed according to the National Committee for Clinical Laboratory Standards (NCCLS) agar dilution method M7-A612.
Methods for dilution antimicrobial susceptibility tests for bacteria that grow aerobically. National Committee for Clinical Laboratory Standards, Sixth Edition, Wayne Pa. Approved Standard NCCLS Document M7-A6 Jan.

[11] = all rifaximin experience, 337 subjects

With `CO[C@H]1/C=C/O[C@@]2(C)Oc3c(C)c(O)c4c(O)c(c5c(nc6cc(C)ccn65)c4c3C2=O)NC(=O)/C(C)=C\C=C\[C@H](C)[C@H](O)[C@@H](C)[C@@H](O)[C@@H](C)[C@H](OC(C)=O)[C@@H]1C` [rifaximin, (2S,16Z,18E,20S,21S,22R,23R,24R,25 S,26S,27S,28E)-5,6,21,23,25-pentahydroxy-27-methoxy-2,4,11,16,20,22,24,26-octamethyl-2,7-(epoxypentadeca-[1,11,13]trienimino)benzofuro[4,5-e]pyrido[1,2-á]-benzimidazole-1,15(2H)-dione,25-acetate] the “subjects improved among those entering with asterixis scores of 1, 2, or 3” value ([1]; 67 subjects) was 64.2%, the “subjects with 1-grade asterixis improvement” value ([1]; 67 subjects) was 50.7% and the “subjects with 2-grade asterixis improvement” value ([1]; 67 subjects) was 6.0%. For the same compound, the “subjects with 3-grade asterixis improvement” value ([1]; 67 subjects) was 7.5%, the “subjects with worsening asterixis, continuing rifaximin” value ([1]; 70 subjects) was 8.6% and the “subjects improved among those entering with Conn scores of 1, 2, or 3” value ([1]; 84 subjects) was 64.3%. The “subjects with 1-grade Conn improvement” value ([1]; 84 subjects) was 56.0%, the “subjects with 2-grade Conn improvement” value ([1]; 84 subjects) was 8.3% and the “subjects improved in asterixis grade among those entering with grade ≧1” value ([1]; 99 subjects) was 58.6%. For the same compound, the “subjects improved to Conn score 0 among those entering with Conn ≧1” value ([1]; 118 subjects) was 62.2%, the “subjects with worsening asterixis, new rifaximin” value ([1]; 196 subjects) was 6.1% and the “subjects with Conn worsening by 1 or 2 grades” value ([1]; 266 subjects) was 9.0%. The “subjects with improvements in Conn scores at last visit” value ([1]; 266 subjects) was 20.3%, the “subjects with improvements in asterixis scores” value ([1]; 266 subjects) was 16.2% and the “subjects with mental status maintained or improved” value ([1]; 266 subjects) was 91%. For the same compound, the “subjects with neuromotor symptoms maintained” value ([1]; 266 subjects) was 83.3%, the “subjects with no change in Conn score at last visit” value ([1]; 266 subjects) was 70.7% and the “subjects with no change in asterixis at last visit” value ([1]; 266 subjects) was 77.1%. The “subjects with improvements in asterixis grade” value ([1]; all rifaximin experience) was 17.3%, the “subjects with maintenance or improvements in asterixis grades” value ([1]; all rifaximin experience) was > 90% and the “subjects with improvements in Conn score” value [1, 11] was 21.1%. For the same compound, the “subjects with no change in Conn score” value [1, 11] was 65.5%, the “subjects with no change in asterixis grade” value [1, 11] was 75.2% and the “subjects with maintenance or improvement in Conn scores” value ([1]; all rifaximin experience, up to 840 days) was > 85%. For the same compound, the toxic effects (rabbits [2]) was “negligible toxic effects”, the “Mean (SD) CFF result” value ([3]; Baseline) was 36.90 (5.47) Hz and the “Critical flicker frequency test” value ([3]; Day 140, mean) was 38.7 Hz. For the same compound, the “Critical flicker frequency test” value ([3]; Day 140, median) was 38.9 Hz, the “Critical flicker frequency test” value ([3]; EOT, median) was 37.8 Hz and the “Mean (SD) CFF result” value ([3]; End of treatment) was 37.81 (4.88) Hz. The “Mean (SD) change in CFF result” value [3] was 0.945 (±4.75) Hz, the “Mean (SD) change in CFF result” value ([3]; listed as Rifaximin) was 0.945 (4.75) Hz and the “improvement in CFF results compared with placebo” value ([3]; in vivo) was “statistically significant greater improvement”. The “CYP3A4 induction in vivo / midazolam exposure” value (CYP3A4) was “only slightly reduced exposure; also recorded: weak inducer of CYP3A4”, the “female mice with ruffled fur and hunched appearance” value (Tg.rasH2 mice) was 2/25 and the “clinical cure rate, Campylobacter jejuni as sole pathogen at baseline” value (Campylobacter jejuni) was 23.5%. For the same compound, the “effectiveness in travelers' diarrhea due to Campylobacter jejuni” value (Campylobacter jejuni) was “not effective”, the “fertility / harm to the fetus” value (rats [4]) was “no evidence of impaired fertility or harm to the fetus” and the “fertility / harm to the fetus” value (rabbits [5]) was “no evidence of impaired fertility or harm to the fetus”. For the same compound, the all-cause hospitalization rate [6] was 0.92 events/PEY and 0.90 events/PEY, the C. difficile-associated colitis [7] was “have been reported” and the AUC(0-t) (in vivo) was 42 to 127 ng·h/mL. For the same compound, the toxic effects (rats [8]) was “negligible toxic effects”, the “subjects with worsening asterixis by 1, 2, or 4 grades” value [9] was 6.8% and the “in vitro antibacterial activity” value [10] was “active”. For the same compound, the “in vitro antibacterial activity” value ([10]; listed as Rifaximin) was “in vitro antimicrobial activity; also recorded: broad spectrum of in vitro antibacterial activity”.
